Measurements as given in patent publication US6406908B1, “Vanilloid receptor” (Novartis AG, priority 1999, dated 2002).
Like-named read-outs stand apart in the source and are kept apart here.

What was measured:
human vanilloid receptor = molecular target: T1, human vanilloid receptor (Homo sapiens, UniProt Q8NER1); experiment: Activation of human vanilloid receptor expressed in mammalian cells; format: cell-based
T1 construct: expressed in transfected cells

Rat DRG neurones [1] = experiment: 45Ca calcium uptake assay in primary cultures of DRG neurones; format: cell-based
Protocol: Primary cultures of adult DRG neurones are prepared according to standard protocols [Wood et al., J. Neuroscience 8:3208-3220 (1988)]. Cells are plated at a density of 2000 per well on 96 well view plates pre-coated with poly-ornithine and laminin and cultured in Hams F14 supplemented with 100 ng/ml NGF for four days. On the day of the assay, the cells are washed eight times in a Denley cell washer with calcium/magnesium free HBSS plus 10 mM HEPES, pH7.4. After washing the wells contain approximately 75 μl of buffer. […] For negative control, capsaicin is omitted. Samples are incubated at RT for 10 min, then washed four times with HBSS/10 mM HEPES pH 7.4. The remaining buffer is removed from the wells and replaced with 25 μl of 0.1% SDS. After about 10 min 200 μl of Microscint 40 scintillant is added and samples are counted on a Packard Topcount.

rVR1 = molecular target: T2, rVR1 (Rattus norvegicus, UniProt O35433); experiment: Aequorin luminescence assay, rVR1 in CHO cells; format: cell-based
T2 construct: expressed in transfected cells
Protocol: (§1) All the plates for use in a day are set up at the same time. The first plate is used in the assay after 2.5 h incubation with coelenterazine h. Subsequent plates are used at about 10 min intervals. […] At the start of the assay, the medium containing coelenterazine h is removed and replaced with 100 μl of HBSS buffered to pH 7.4 with 10 mM HEPES containing test compounds where appropriate. Cells are incubated for at least 10 min at RT. They are then placed in the measuring chamber of a luminometer (Wallac Microbeta Jet). Agonist is injected in a volume of 20 μl HBSS and the luminescence signal is collected for 20 sec.

hVR1 [2] = molecular target: T3, hVR1 (Homo sapiens, UniProt Q8NER1); experiment: Aequorin luminescence assay, hVR1 in CHO cells; format: cell-based
T3 construct: expressed in transfected cells
Protocol: as §1

hVR1 [3] = molecular target: T3, hVR1; experiment: Fluorometric Fluo-3 assay using the FLIPR, hVR1 in CHO cells; format: cell-based
Protocol: Cells resulting from Examples A1 or A2 are plated at a density of 50,000 cells/well in Costar Viewplates. The cells are incubated at 37° C. in a humidified atmosphere (5% CO2/95% air) for 24 h. Medium is removed by flicking the plates and replaced with 100 μl HBSS containing 2 μM Fluo-3, AM (Molecular Probes) in the presence of 2.5 mM probenicid (Sigma) and 0.02% pluronic acid (Molecular Probes). The cells are incubated at 37° C. in a humidified atmosphere (5% CO2/95% air) for 1 h. Plates are flicked to remove excess of Fluo-3, AM, washed twice with HBSS and refilled with 100 μl of HBSS containing screening compounds. Incubation in the presence of screening compounds lasts between 10 and 20 min. Plates are then placed in the cell plate stage of the FLIPR (Molecular Devices, Sunnyvale, Calif., USA). A baseline consisting in 5 measurements of 0.4 sec each (laser: excitation 488 nm at 0.6 W, CCD camera opening of 0.4 sec) is recorded.

Rat DRG neurones [4] = settings: inhibition of capsaicin response; from Wood et al (1988); read-out: IC50 (nM) (Ca uptake assay) Rat DRG neurones; cited from earlier work
[5] = inhibition of capsaicin response, capsaicin 1 μM

T3 sequence (Q8NER1 whole entry): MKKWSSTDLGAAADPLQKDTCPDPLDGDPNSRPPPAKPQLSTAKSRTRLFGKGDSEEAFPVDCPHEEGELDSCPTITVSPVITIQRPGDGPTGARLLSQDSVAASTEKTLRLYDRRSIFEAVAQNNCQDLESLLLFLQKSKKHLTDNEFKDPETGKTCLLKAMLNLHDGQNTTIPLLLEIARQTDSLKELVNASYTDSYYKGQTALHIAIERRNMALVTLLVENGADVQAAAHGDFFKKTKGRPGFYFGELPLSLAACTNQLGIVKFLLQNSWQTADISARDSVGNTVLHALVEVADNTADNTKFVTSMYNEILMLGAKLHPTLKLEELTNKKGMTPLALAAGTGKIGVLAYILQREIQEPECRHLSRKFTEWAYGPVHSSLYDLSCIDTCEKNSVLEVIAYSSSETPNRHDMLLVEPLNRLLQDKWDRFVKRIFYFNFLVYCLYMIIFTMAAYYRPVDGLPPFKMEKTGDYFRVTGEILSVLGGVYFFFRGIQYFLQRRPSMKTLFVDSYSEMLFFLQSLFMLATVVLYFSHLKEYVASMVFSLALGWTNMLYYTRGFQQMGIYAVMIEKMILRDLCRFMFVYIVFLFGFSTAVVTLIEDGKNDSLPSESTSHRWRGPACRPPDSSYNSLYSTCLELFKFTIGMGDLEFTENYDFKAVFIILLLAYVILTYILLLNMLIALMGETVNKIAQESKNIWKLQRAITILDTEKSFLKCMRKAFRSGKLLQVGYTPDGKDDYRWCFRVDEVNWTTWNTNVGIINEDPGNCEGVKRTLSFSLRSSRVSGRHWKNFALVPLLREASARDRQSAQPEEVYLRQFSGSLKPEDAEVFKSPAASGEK
T1 sequence (Q8NER1 whole entry): as above
T2 sequence (O35433 whole entry): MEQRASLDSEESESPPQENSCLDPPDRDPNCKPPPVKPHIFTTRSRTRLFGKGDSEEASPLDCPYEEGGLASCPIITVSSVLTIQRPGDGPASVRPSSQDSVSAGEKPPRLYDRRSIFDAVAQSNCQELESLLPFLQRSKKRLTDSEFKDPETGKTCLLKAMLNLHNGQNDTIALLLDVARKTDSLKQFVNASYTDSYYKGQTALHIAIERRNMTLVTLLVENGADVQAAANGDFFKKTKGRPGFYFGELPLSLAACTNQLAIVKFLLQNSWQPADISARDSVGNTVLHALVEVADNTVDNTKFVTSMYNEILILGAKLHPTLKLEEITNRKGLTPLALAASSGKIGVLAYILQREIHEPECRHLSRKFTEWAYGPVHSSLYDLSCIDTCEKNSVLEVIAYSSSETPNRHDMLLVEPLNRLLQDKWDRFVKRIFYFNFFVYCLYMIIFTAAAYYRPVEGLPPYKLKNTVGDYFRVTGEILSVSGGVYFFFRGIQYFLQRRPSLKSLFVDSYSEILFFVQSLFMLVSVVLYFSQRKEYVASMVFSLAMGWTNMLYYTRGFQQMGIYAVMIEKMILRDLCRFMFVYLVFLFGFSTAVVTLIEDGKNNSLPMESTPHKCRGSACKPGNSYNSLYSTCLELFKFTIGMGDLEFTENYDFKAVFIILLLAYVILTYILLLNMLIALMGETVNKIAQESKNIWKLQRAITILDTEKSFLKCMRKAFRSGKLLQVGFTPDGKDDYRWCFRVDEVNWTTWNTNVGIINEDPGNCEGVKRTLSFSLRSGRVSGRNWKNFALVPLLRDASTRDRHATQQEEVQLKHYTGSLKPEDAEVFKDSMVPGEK

COc1cc(CNC(=O)CCCC/C=C/C(C)C)ccc1O [Capsaicin]
Activation of the human vanilloid receptor (human vanilloid receptor): activated by capsaicin
EC50 (Rat DRG neurones [1]; 10 min): 170 ± 19 nM

Oc1cc2c(cc1O)CN(C(=S)NCCc1ccc(Cl)cc1)CCC2 [Cz, Capsazepine]
IC50 (rVR1): 320 ± 110 nM
IC50 (hVR1 [2]): 120 ± 12 nM
Block of activation by capsaicin, temperatures greater than 42° C. and pH less than 5.5 (human vanilloid receptor): blocked substantially or completely
IC50 (hVR1 [3]): 130 ± 32 nM
IC50 (Rat DRG neurones [1]): 800 ± 40 nM

N.N.N.N.N.N.N.N.N.N.N.N.N.N.[Cl-].[Cl-].[Cl-].[Cl-].[Cl-].[Cl-].[O-2].[O-2].[Ru+3].[Ru+3].[Ru+4] [Rr, Ruthenium red]
IC50 (rVR1; [5]): 18 ± 8.3 nM
IC50 (hVR1 [2]; [5]): 220 ± 32 nM
Blocking of capsaicin responses (hVR1 [2]; measured as in Example B1, stated generally for the assays): effective blocker of capsaicin responses
IC50 (Rat DRG neurones [4]): 50 nM
